# According to PMC9692542, “First Report of the Molecular Mechanism of Resistance to Tribenuron-Methyl in Silene conoidea L” (Plants, 2022):
# Tested on: T1, ALS (acetolactate synthase)
# T1 construct: native enzyme in leaf extract, not purified
# Assay: in vitro ALS activity of leaf extract, colorimetric acetoin ([…] nm)
# Type: biochemical, Silene conoidea
# Conditions: leaf extract of susceptible population; read-out: I50 (μM) ^c
structure (smiles),measurement,value
"COC(=O)c1ccccc1S(=O)(=O)NC(=O)N(C)c1nc(C)nc(OC)n1 [tribenuron-methyl, methyl 2-[[[[N-(4-methoxy-6-methyl-1,3,5triazin-2-yl)methyl-amino]carbonyl]amino]sulfonyl]benzoate]",IC50,11.6 ± 1 µM
